Data published in paper PMC4305510 (Analytical biochemistry, 2014).
Like-named read-outs stand apart in the source and are kept apart here. Blank lines part the entries; values can stand above or below the compound they belong to.

How the values were obtained:
Sinapis alba myrosinase [1] = assay: HPLC progress curves, pooled wavelengths; assay type: biochemical; conditions: read-out: Km (μM) / HPLC, 0.1 M phosphate pH 7.4, 37 °C
Sinapis alba myrosinase [2] = assay: HPLC progress curves, pooled wavelengths; assay type: biochemical; conditions: read-out: Km (μM) / HPLC; 0.1 M phosphate pH 7.4, 37 °C; 14.52 U/ml myrosinase

- Km (Sinapis alba myrosinase [1]; 4.27 U/ml myrosinase): 168 ± 17 µM
Compound: C=CC/C(=N/OS(=O)(=O)O)S[C@@H]1O[C@H](CO)[C@@H](O)[C@H](O)[C@H]1O [compound 4, Sinigrin]

- Km (Sinapis alba myrosinase [2]): 1160 ± 70 µM
Compound: O=S(=O)(O)O/N=C(\S[C@@H]1O[C@H](CO)[C@@H](O)[C@H](O)[C@H]1O)c1ccccc1 [compound 5, Phenyl glucosinolate]

- Km (Sinapis alba myrosinase [1]; 4.84 U/ml myrosinase): 90.6 ± 6.8 µM
Compound: O=S(=O)(O)O/N=C(/Cc1ccccc1)S[C@@H]1O[C@H](CO)[C@@H](O)[C@H](O)[C@H]1O [compound 6, glucotropaeolin]
